In PubChem BioAssay AID1259407 (Chemical Carcinogenesis Research Information System (CCRIS), 2018):
The source made the active and inactive calls. How the calls were made is not given here.

Test system: CCRIS mutagenicity, Ames/micronucleus/aberration tests
Experiment: CCRIS mutagenicity studies
[1] = Test System: AMES SALMONELLA TYPHIMURIUM, Strain/Indicator: TA98, Metabolic Activation: NONE, Method: PREINCUBATION
[2] = Test System: AMES SALMONELLA TYPHIMURIUM, Strain/Indicator: TA98, Metabolic Activation: NONE, Method: STANDARD PLATE
[3] = Test System: AMES SALMONELLA TYPHIMURIUM, Strain/Indicator: TA98, Metabolic Activation: RAT, LIVER, S-9, AROCLOR 1254, Method: STANDARD PLATE
[4] = Test System: AMES SALMONELLA TYPHIMURIUM, Strain/Indicator: TA100, Metabolic Activation: NONE, Method: PREINCUBATION
[5] = Test System: AMES SALMONELLA TYPHIMURIUM, Strain/Indicator: TA100, Metabolic Activation: NONE, Method: STANDARD PLATE
[6] = Test System: AMES SALMONELLA TYPHIMURIUM, Strain/Indicator: TA100, Metabolic Activation: RAT, LIVER, S-9, AROCLOR 1254, Method: STANDARD PLATE
[7] = Test System: AMES SALMONELLA TYPHIMURIUM, Strain/Indicator: TA1535, Metabolic Activation: NONE, Method: PREINCUBATION
[8] = Test System: AMES SALMONELLA TYPHIMURIUM, Strain/Indicator: TA1535, Metabolic Activation: NONE, Method: STANDARD PLATE
[9] = Test System: AMES SALMONELLA TYPHIMURIUM, Strain/Indicator: TA1535, Metabolic Activation: RAT, LIVER, S-9, AROCLOR 1254, Method: STANDARD PLATE
[10] = Test System: AMES SALMONELLA TYPHIMURIUM, Strain/Indicator: TA1537, Metabolic Activation: NONE, Method: STANDARD PLATE
[11] = Test System: AMES SALMONELLA TYPHIMURIUM, Strain/Indicator: TA1537, Metabolic Activation: RAT, LIVER, S-9, AROCLOR 1254, Method: STANDARD PLATE

Measured: mutagenic call

CN(C)c1ccc([C@H]2C[C@]3(C)[C@@H](CC[C@]3(O)CCCO)[C@@H]3CCC4=CC(=O)CCC4=C32)cc1
inactive: End Point: IN VITRO CHROMOSOMAL ABERRATIONS, Test System: HUMAN PERIPHERAL LYMPHOCYTES, Metabolic Activation: NONE inactive; negative | End Point: IN VITRO CHROMOSOMAL ABERRATIONS, Test System: HUMAN PERIPHERAL LYMPHOCYTES, Metabolic Activation: RAT, LIVER, S-9, AROCLOR 1254 inactive; negative | End Point: IN VIVO MICRONUCLEUS, Test System: BONE MARROW POLYCHROMATIC ERYTHROCYTES, Species: MOUSE, Strain/Sex: NMRI/MALE, FEMALE, Route: INTRAGASTRIC inactive; negative | [1] inactive; negative | [2] inactive; negative | Test System: AMES SALMONELLA TYPHIMURIUM, Strain/Indicator: TA98, Metabolic Activation: RAT, LIVER, S-9, AROCLOR 1254, Method: PREINCUBATION inactive; negative | [3] inactive; negative | [4] inactive; negative | [5] inactive; negative | Test System: AMES SALMONELLA TYPHIMURIUM, Strain/Indicator: TA100, Metabolic Activation: RAT, LIVER, S-9, AROCLOR 1254, Method: PREINCUBATION inactive; negative | [6] inactive; negative | [7] inactive; negative | [8] inactive; negative | Test System: AMES SALMONELLA TYPHIMURIUM, Strain/Indicator: TA1535, Metabolic Activation: RAT, LIVER, S-9, AROCLOR 1254, Method: PREINCUBATION inactive; negative | [9] inactive; negative | Test System: AMES SALMONELLA TYPHIMURIUM, Strain/Indicator: TA1537, Metabolic Activation: NONE, Method: PREINCUBATION inactive; negative | [10] inactive; negative | Test System: AMES SALMONELLA TYPHIMURIUM, Strain/Indicator: TA1537, Metabolic Activation: RAT, LIVER, S-9, AROCLOR 1254, Method: PREINCUBATION inactive; negative | [11] inactive; negative | Test System: AMES SALMONELLA TYPHIMURIUM, Strain/Indicator: TA1538, Metabolic Activation: NONE, Method: PREINCUBATION inactive; negative | Test System: AMES SALMONELLA TYPHIMURIUM, Strain/Indicator: TA1538, Metabolic Activation: NONE, Method: STANDARD PLATE inactive; negative | Test System: AMES SALMONELLA TYPHIMURIUM, Strain/Indicator: TA1538, Metabolic Activation: RAT, LIVER, S-9, AROCLOR 1254, Method: PREINCUBATION inactive; negative | Test System: AMES SALMONELLA TYPHIMURIUM, Strain/Indicator: TA1538, Metabolic Activation: RAT, LIVER, S-9, AROCLOR 1254, Method: STANDARD PLATE inactive; negative | Test System: CHINESE HAMSTER V-79, Strain/Indicator: V-79 (HGPRT)/6-THIOGUANINE, Metabolic Activation: NONE inactive; negative | Test System: CHINESE HAMSTER V-79, Strain/Indicator: V-79 (HGPRT)/6-THIOGUANINE, Metabolic Activation: RAT, LIVER, S-9, AROCLOR 1254 inactive; negative

COC(=O)[C@H]1[C@H]2C[C@@H]3c4[nH]c5cc(OC)ccc5c4CCN3C[C@H]2C[C@@H](OC(=O)c2cc(OC)c(OC)c(OC)c2)[C@@H]1OC
inactive: End Point: IN VITRO CHROMOSOMAL ABERRATIONS, Test System: CHO CELLS, Metabolic Activation: NONE inactive; negative | Test System: AMES SALMONELLA TYPHIMURIUM, Strain/Indicator: TA97, Metabolic Activation: HAMSTER, LIVER, S-9, AROCLOR 1254 (10 OR 30%), Method: PREINCUBATION inactive; negative | Test System: AMES SALMONELLA TYPHIMURIUM, Strain/Indicator: TA97, Metabolic Activation: NONE, Method: PREINCUBATION inactive; negative | Test System: AMES SALMONELLA TYPHIMURIUM, Strain/Indicator: TA97, Metabolic Activation: RAT, LIVER, S-9, AROCLOR 1254 (10 OR 30%), Method: PREINCUBATION inactive; negative | Test System: AMES SALMONELLA TYPHIMURIUM, Strain/Indicator: TA98, Metabolic Activation: HAMSTER, LIVER, S-9, AROCLOR 1254 (10 OR 30%), Method: PREINCUBATION inactive; negative | [1] inactive; negative | [2] inactive; negative | Test System: AMES SALMONELLA TYPHIMURIUM, Strain/Indicator: TA98, Metabolic Activation: RAT, LIVER, S-9, AROCLOR 1254 (10 OR 30%), Method: PREINCUBATION inactive; negative | [3] inactive; negative | Test System: AMES SALMONELLA TYPHIMURIUM, Strain/Indicator: TA100, Metabolic Activation: HAMSTER, LIVER, S-9, AROCLOR 1254 (10 OR 30%), Method: PREINCUBATION inactive; negative | [4] inactive; negative | [5] inactive; negative | Test System: AMES SALMONELLA TYPHIMURIUM, Strain/Indicator: TA100, Metabolic Activation: RAT, LIVER, S-9, AROCLOR 1254 (10%), Method: PREINCUBATION inactive; negative | Test System: AMES SALMONELLA TYPHIMURIUM, Strain/Indicator: TA100, Metabolic Activation: RAT, LIVER, S-9, AROCLOR 1254 (30%), Method: PREINCUBATION inactive; negative | [6] inactive; negative | Test System: AMES SALMONELLA TYPHIMURIUM, Strain/Indicator: TA1535, Metabolic Activation: HAMSTER, LIVER, S-9, AROCLOR 1254 (10 OR 30%), Method: PREINCUBATION inactive; negative | [7] inactive; negative | [8] inactive; negative | Test System: AMES SALMONELLA TYPHIMURIUM, Strain/Indicator: TA1535, Metabolic Activation: RAT, LIVER, S-9, AROCLOR 1254 (10 OR 30%), Method: PREINCUBATION inactive; negative | [9] inactive; negative | [10] inactive; negative | [11] inactive; negative | Test System: E. COLI, Strain/Indicator: WP2 UVRA, Metabolic Activation: HAMSTER, LIVER, S-9, AROCLOR 1254, Method: STANDARD PLATE inactive; negative | Test System: E. COLI, Strain/Indicator: WP2 UVRA, Metabolic Activation: HAMSTER, LIVER, S-9, Method: STANDARD PLATE inactive; negative | Test System: E. COLI, Strain/Indicator: WP2 UVRA, Metabolic Activation: MOUSE, LIVER, S-9, AROCLOR 1254, Method: STANDARD PLATE inactive; negative | Test System: E. COLI, Strain/Indicator: WP2 UVRA, Metabolic Activation: MOUSE, LIVER, S-9, Method: STANDARD PLATE inactive; negative | Test System: E. COLI, Strain/Indicator: WP2 UVRA, Metabolic Activation: NONE, Method: STANDARD PLATE inactive; negative | Test System: E. COLI, Strain/Indicator: WP2 UVRA, Metabolic Activation: RAT, LIVER, S-9, AROCLOR 1254, Method: STANDARD PLATE inactive; negative | Test System: E. COLI, Strain/Indicator: WP2 UVRA, Metabolic Activation: RAT, LIVER, S-9, Method: STANDARD PLATE inactive; negative | Test System: UDS RAT HEPATOCYTES, Strain/Indicator: BROMODEOXYURIDINE INCORP, Metabolic Activation: NONE, Method: FLOW CYTOMETRIC ANALYSIS inactive; negative
